The values below are quoted from earlier work in patent publication US6380175B1, “Method for enhancement of delivery of THC by the administration of its prodrugs via the nasal route” (New Millennium Pharmaceutical Research, Inc., priority 1999, dated 2002).

For the data set the following is noted: room temperature.

For the compound `CCCCCc1cc(O)c2c(c1)OC(C)(C)C1CCC(C)=CC21` (stereo not shown) [THC, Δ-9-tetrahydrocannabinol], the aqueous solubility result was “very poor aqueous solubility”.
